Patent US10633374B2, “Small molecule based antibody-recruiting compounds for cancer treatment” (YALE UNIVERSITY, priority 2015, dated 2020)

How the values were obtained:
uPAR (uPA binding site) = molecular target: T1, uPAR (uPA binding site) (Homo sapiens, UniProt Q03405); test: Competitive ELISA uPAR binding assay (immobilized urokinase)
T1 construct: purchased R&D systems
Method: The affinity of ARM-U2 derivatives differing in both the length of the DNP-linker substituted at position 2 of ring C and the display of negative charge density (FIG. 8, Table 1) for uPAR were assayed using a competitive ELISA binding assay. The assay involves the immobilization of urokinase, a natural high affinity ligand for uPAR followed by the addition of a fixed concentration of recombinant uPAR protein and increasing concentrations of ARM-U2 which competes with urokinase for binding to the uPA binding site of uPAR. Following several washing steps, the amount of uPAR bound is quantified by a biotinylated anti-uPAR antibody and avidin-HRP and can be fit to a competitive binding model allowing for the extraction of the uPAR/ARM-U2 Kd.
All ARM-U2 derivatives were assessed for their ability to bind selectively to recombinant uPAR in vitro using a competitive ELISA binding assay. DMSO stock solutions of each ARM-U2 derivative stored at −20° C. were titrated into wells pre-coated with human urokinase (isolated from human urine, ProSpec 1 mg/ml deI water 18.5 μM) in the presence of uPAR. Selective binding to uPAR by ARM-U2 at the uPA binding site competes with uPAR-uPA binding which is required for a positive UV 450 nm absorbance signal. Increasing concentrations of ARM-U2 displace increasing amounts of uPAR from uPA which is detected by anti-uPAR/biotin labeled antibodies followed by avidin-HRP. The sigmoidal binding isotherm of absorbance at 450 nm vs log ARM-U2 concentration can then by fit by non-linear regression analysis to obtain the IC50 for ARM-U2/uPAR binding (Equation S2) which can then be translated into a KI for ARM-U2/uPAR binding using a competitive binding model adapted from the Cheng-Prusoff equation relating KI to IC50 (Equation S3). The ELISA experiments were performed as followed: To Corning high binding 96 well flat bottom plates was added 100 μl/well of 100 nM urokinase in sterile PBS. The plates were sealed and left to incubate at 4° C. overnight. The plates were then washed 1× with 200 μl wash buffer (PBS+0.05% Tween-20) and 1× with 400 μl wash buffer. The plates were blotted on paper towel and blocked for 1 h shaking at room temp with 300 μl of a solution of thermo superblock in PBS per well. Molecule dilutions into solutions of a fixed concentration (10 nM) of uPAR were prepared in 0.025% triton-X/PBS on a separate low binding plate during the blocking hour. The plates were again washed followed by the addition of 100 μl of the ARM-U2/uPAR solution with 0.1% final DMSO concentration. The solutions were mixed by multichannel pipette, sealed, and incubated for 2 h with shaking at room temperature. The plates were then washed 1× with 200 μl wash buffer (PBS+0.05% Tween-20) and 2× with 400 μl wash buffer. The plates were blotted on a paper towel followed by the addition of 100 μl/well of a solution of biotinylated anti-uPAR antibody in 1% BSA/PBS. (R&D Systems, 3.3 μl taken from 50 μg/250 μl-1000× stock) and incubation with shaking for 1 h at room temp. The plates were washed 1× with 200 μl wash buffer and 2× with 400 μl wash buffer and blotted on a paper towel. 100 μl of avidin-HRP (stock −500× from e-bioscience) were added per well, incubated 20 min with shaking at room temp followed by washing 1× with 200 μl wash buffer and 3× with 400 μl wash buffer. The plates were blotted dry with paper towel and 100 μl of TMB substrate was added to each well. The emergence of blue color was monitored and the reaction quenched with the addition of 50 μl of 2M sulfuric acid to each well followed by measuring the absorbance at 450 nm using a fluorescence plate reader. […]

A172 glioblastoma cells = test: Antibody-dependent cellular phagocytosis (ADCP) of A172 cells by U937 cells; assay type: cell-based, human; conditions: U937 effector cells, anti-DNP antibodies
Method: ADCP experiments carried out via a dual channel flow cytometry assay and were performed by measuring the % phagocytosis of A172 human glioblastoma cells by IFN-gamma primed U937 macrophage effector cells each stained with FL-1 and FL-4 dyes respectively giving rise to double positive FL-1 and FL-4 fluorescence shifts accompanying phagocytosis. These assays were performed in the presence and absence of exogenously added anti-DNP antibodies and various concentrations of each ARM-U2 derivative. Control experiments were also performed to confirm that cellular phagocytosis is occurring and is dependent on ARM-U2 binding cell surface uPAR by • 1. Performing out competitions with exogenous uPAR, • 2. Performing out-competitions with 6-ABT-4 which should bind uPAR but not anti-DNP antibodies • 3. Performing ADCP at 4 degrees Celsius where phagocytosis cannot occur and • 4. Amnis microscopic analysis of double positives identified in the ADCP assay to undergo 6-ABT-1 dependent phagocytosis.
IFNγ-primed U937 cells were stained with DiD dye (final concentration 1.9 μM) for 30 min at 37° C. A172 target cells were prepared by staining adherent cells with DiO dye (Invitrogen; final concentration 1.9 μM), and then nonenzymatically detaching the cells with 0.5 mM EDTA and EGTA. Cells were counted with trypan blue staining to verify cell viability. To measure phagocytosis, 2.5×10^4 target cells were suspended in 25 ul phenol-free low-IgG RPMI media to which 25 ul of 100 nM anti-DNP antibody (rabbit polyclonal KLH IgG, Invitrogen-100× stock) containing media was added followed by the addition of 1 ul of ARM-U2 from 100×DMSO stocks or 6-ABT-4 from 100×DMSO stocks for compound out-competition experiments, followed by the addition of 50 ul of 10^5 U937 cells in the same RPMI Assay Media resulting in a final volume of 100 uL. This experimental setup yielded an effector-to-target ratio (E:T ratios) of 4:1. For out-competition studies with exogenous uPAR, 250 ul of A-172 target cells in assay media was added directly to lyophilized 100 ug uPAR (R@D systems) to yield an 8.4 uM stock uPAR concentration, this was then combined in the manner and order described above. Eppendorfs were centrifuged at 200 rcf for 2 min then incubated at 37° C. for 1 hour or at 4° C. for 1 hr in controls establishing real phagocytosis is indeed represented by double positives in flow cytometry. Phagocytosis was halted by placing tubes on ice. […] The live cell population selected was further gated into four quadrants using dual FL-1 and FL-4 fluorescence enabling for the differentiation of effector only cells (top left quadrant-high FL-4), target only cells (bottom right quadrant-high FL-1 fluorescence), and double positive overlapping target and effector cells (top right quadrant-high FL-1 and FL-4 fluorescence). […]

recombinant uPAR = molecular target: T2, recombinant uPAR (Homo sapiens, UniProt Q03405); test: Fluorescence quenching titration of ARM-U2 derivatives with uPAR; assay type: binding; conditions: fluorescence titration of 100 nM derivative with increasing uPAR; read-out: Kd, solution equilibrium dissociation constant with uPAR
T2 construct: purchased R&D systems
T2 sequence (Q03405 23-305): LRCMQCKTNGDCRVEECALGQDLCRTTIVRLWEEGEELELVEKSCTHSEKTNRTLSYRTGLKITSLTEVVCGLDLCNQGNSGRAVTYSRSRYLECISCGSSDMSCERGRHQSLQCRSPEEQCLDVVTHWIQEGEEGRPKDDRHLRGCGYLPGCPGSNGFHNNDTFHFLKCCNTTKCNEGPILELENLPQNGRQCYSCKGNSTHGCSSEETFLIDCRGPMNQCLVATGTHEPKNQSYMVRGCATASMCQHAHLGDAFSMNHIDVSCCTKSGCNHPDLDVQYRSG
Method: Selected ARM-U2 derivatives were assayed for their ability to bind recombinant uPAR using a fluorescence quenching assay. […] Increasing concentrations of recombinant uPAR were mixed with each compound containing aliquot and the fluorescence of the solution measured following 1 h equilibration times. […] To confirm that the observation of uPAR dependent fluorescence quenching was indeed due to specific binding to uPAR and to validate ARM-U2 binding to uPAR specifically via the uPA binding site, a direct binding ELISA assay was developed. In this assay, clear 96-well high-binding plates from CoStar, were loaded with 100 μl/well of 50 nM recombinant uPAR 807-UK-100-CF from R&D systems prepared from a 100 μg/ml (approx. 2.1 μM) stock of uPAR in PBS and left overnight at room temperature to equilibrate. Following equilibration, the plate was washed with wash buffer 1× (400 μl/well of 0.05% Tween/PBS), blotted dry and blocked for 1 hr with 300 ul/well of 2% BSA/PBS. Following blocking, the plate was washed with 400 ul of the wash buffer and blotted dry. […] The absorbance at 450 nm was measured using an in-house Perkin-Elmer fluorescence plate reader.
All ARM-U2 derivatives were assessed for their ability to bind selectively to recombinant uPAR in vitro using a competitive ELISA binding assay. […] Selective binding to uPAR by ARM-U2 at the uPA binding site competes with uPAR-uPA binding which is required for a positive UV 450 nm absorbance signal. Increasing concentrations of ARM-U2 displace increasing amounts of uPAR from uPA which is detected by anti-uPAR/biotin labeled antibodies followed by avidin-HRP. The sigmoidal binding isotherm of absorbance at 450 nm vs log ARM-U2 concentration can then by fit by non-linear regression analysis to obtain the IC50 for ARM-U2/uPAR binding (Equation S2) which can then be translated into a KI for ARM-U2/uPAR binding using a competitive binding model adapted from the Cheng-Prusoff equation relating KI to IC50 (Equation S3). […]

[1] = test system: B16 melanoma tumors expressing human uPAR; test: B16 mouse melanoma allograft model expressing human uPAR; assay type: in vivo
Description: The inventors also examined the efficacy of ARM-U2 in a B16−uPAR mouse allograft model developed in our laboratory. Mice immunized to produce anti-DNP IgG antibodies containing tumors expressing human uPAR, received daily treatment via intraperitoneal (IP) injection and were monitored over the course of 42 days.

T1 sequence (Q03405 23-305): as above

Structure (SMILES) | uPAR-binding affinity relative to parent ARM-U2 derivative 1-ABT-1 (uPAR (uPA binding site)) | ADCP efficacy and potency compared to 1-ABT-1 (A172 glioblastoma cells) | also measured
O=C(O)c1cc(Nc2cc(N3CCC[C@H](C(=O)NCCCOCCOCCOCCCNc4ccc([N+](=O)[O-])cc4[N+](=O)[O-])C3)c3noc4c3c2C(=O)c2ccccc2-4)cc(C(=O)O)c1 [2-ABT-1] | no increase in uPAR-binding affinity | no increase in efficacy or potency in ADCP | –
O=C(O)CNC(=O)c1cccc(Nc2cc(N3CCC[C@H](C(=O)NCCCOCCOCCOCCCNc4ccc([N+](=O)[O-])cc4[N+](=O)[O-])C3)c3noc4c3c2C(=O)c2ccccc2-4)c1 [3-ABT-1] | modest increase in affinity | no increase in efficacy or potency in ADCP | –
O=C(O)CNc1cccc(Nc2cc(N3CCC[C@H](C(=O)NCCCOCCOCCOCCCNc4ccc([N+](=O)[O-])cc4[N+](=O)[O-])C3)c3noc4c3c2C(=O)c2ccccc2-4)c1 [4-ABT-1] | modest increase in affinity | no increase in efficacy or potency in ADCP | –
O=C1c2ccccc2-c2onc3c(N4CCC[C@H](C(=O)NCCCOCCOCCOCCCNc5ccc([N+](=O)[O-])cc5[N+](=O)[O-])C4)cc(Nc4cccc(S(=O)(=O)O)c4)c1c23 [5-ABT-1] | no increase in uPAR-binding affinity | no increase in % phagocytosis | –
O=C(CCCC(=O)NCCOCCOCCOCCOCCOCCOCCOCCNc1ccc([N+](=O)[O-])cc1[N+](=O)[O-])NCCOCCOCCOCCOCCOCCOCCOCCNC(=O)[C@H]1CCCN(c2cc(Nc3ccc(S(=O)(=O)O)cc3S(=O)(=O)O)c3c4c(onc24)-c2ccccc2C3=O)C1 [6-ABT-3] | – | – | Kd (recombinant uPAR): 18 nM
Nc1c(N2CCCC(C(=O)NCCCOCCOCCOCCCNc3ccc([N+](=O)[O-])cc3[N+](=O)[O-])C2)cc(Nc2ccc(S(=O)(=O)O)cc2S(=O)(=O)O)c2c1C(=O)c1ccccc1C2=O (stereo not drawn) [compound 23] | – | – | Ki (uPAR (uPA binding site); calculated from the ELISA IC50): 10 nM; IC50 (uPAR (uPA binding site); competition with immobilized uPA for uPAR): 63 nM
COc1cccc2c1C(=O)c1c(O)c3c(c(O)c1C2=O)C[C@@](O)(C(=O)CO)C[C@@H]3O[C@H]1C[C@H](N)[C@H](O)[C@H](C)O1 [doxorubicin] | – | – | average tumor volume after 17 days ([1]; IP injections over 17 days): approximately 200 mm^3; mean survival ([1]; daily IP treatment): 27 days; tumor growth inhibition (TGI) ([1]; daily IP, ARM-U2 20 mpk or 100 mpk, Dox 1 mpk, vs PBS): comparable; persistence of tumor regression after treatment cessation ([1]; mouse, in vivo): ~14 days
